BigSolDB 2.1

CC1=CC(=O)C(C(C)C)=CC1=O
solubility (mole fraction) (in DMSO, 298.2 K): 0.0278 | solubility (mole fraction) (in DMSO, 303.2 K): 0.0309 | solubility (mole fraction) (in DMSO, 308.2 K): 0.0358 | solubility (mole fraction) (in DMSO, 313.2 K): 0.0402 | solubility (mole fraction) (in DMSO, 318.2 K): 0.045 | solubility (mole fraction) (in PEG-400, 298.2 K): 0.0352 | solubility (mole fraction) (in PEG-400, 303.2 K): 0.042 | solubility (mole fraction) (in PEG-400, 308.2 K): 0.0508 | solubility (mole fraction) (in PEG-400, 313.2 K): 0.0617 | solubility (mole fraction) (in PEG-400, 318.2 K): 0.0744 | solubility (mole fraction) (in ethanol, 298.2 K): 0.0179 | solubility (mole fraction) (in ethanol, 303.2 K): 0.0206 | solubility (mole fraction) (in ethanol, 308.2 K): 0.0238 | solubility (mole fraction) (in ethanol, 313.2 K): 0.0278 | solubility (mole fraction) (in ethanol, 318.2 K): 0.0326 | solubility (mole fraction) (in ethyl acetate, 298.2 K): 0.0312 | solubility (mole fraction) (in ethyl acetate, 303.2 K): 0.0347 | solubility (mole fraction) (in ethyl acetate, 308.2 K): 0.0387 | solubility (mole fraction) (in ethyl acetate, 313.2 K): 0.0431 | solubility (mole fraction) (in ethyl acetate, 318.2 K): 0.0485 | solubility (mole fraction) (in isopropanol, 298.2 K): 0.0451 | solubility (mole fraction) (in isopropanol, 303.2 K): 0.0514 | solubility (mole fraction) (in isopropanol, 308.2 K): 0.0579 | solubility (mole fraction) (in isopropanol, 313.2 K): 0.0663 | solubility (mole fraction) (in isopropanol, 318.2 K): 0.0758 | solubility (mole fraction) (in methanol, 298.2 K): 0.01 | solubility (mole fraction) (in methanol, 303.2 K): 0.0116 | solubility (mole fraction) (in methanol, 308.2 K): 0.0137 | solubility (mole fraction) (in methanol, 313.2 K): 0.0157 | solubility (mole fraction) (in methanol, 318.2 K): 0.0182 | solubility (mole fraction) (in n-butanol, 298.2 K): 0.0594 | solubility (mole fraction) (in n-butanol, 303.2 K): 0.0658 | solubility (mole fraction) (in n-butanol, 308.2 K): 0.0744 | solubility (mole fraction) (in n-butanol, 313.2 K): 0.082 | solubility (mole fraction) (in n-butanol, 318.2 K): 0.0933 | solubility (mole fraction) (in propylene glycol, 298.2 K): 0.00553 | solubility (mole fraction) (in propylene glycol, 303.2 K): 0.0069 | solubility (mole fraction) (in propylene glycol, 308.2 K): 0.00891 | solubility (mole fraction) (in propylene glycol, 313.2 K): 0.0116 | solubility (mole fraction) (in propylene glycol, 318.2 K): 0.0146 | solubility (mole fraction) (in sec-butanol, 298.2 K): 0.0614 | solubility (mole fraction) (in sec-butanol, 303.2 K): 0.07 | solubility (mole fraction) (in sec-butanol, 308.2 K): 0.0774 | solubility (mole fraction) (in sec-butanol, 313.2 K): 0.0865 | solubility (mole fraction) (in sec-butanol, 318.2 K): 0.0973 | solubility (mole fraction) (in transcutol, 298.2 K): 0.0664 | solubility (mole fraction) (in transcutol, 303.2 K): 0.0755 | solubility (mole fraction) (in transcutol, 308.2 K): 0.0838 | solubility (mole fraction) (in transcutol, 313.2 K): 0.0927 | solubility (mole fraction) (in transcutol, 318.2 K): 0.103 | solubility (mole fraction) (in water, 298.2 K): 8.27e-05 | solubility (mole fraction) (in water, 303.2 K): 9.39e-05 | solubility (mole fraction) (in water, 308.2 K): 0.000108 | solubility (mole fraction) (in water, 313.2 K): 0.000131 | solubility (mole fraction) (in water, 318.2 K): 0.000152
